# Results: PMC6804997 (PLoS ONE, 2019)
# Key:
# [1] = system: liver, kidney, spleen, heart and lung tissues of mice; test: Histological examination of organs from normal mice given F7; format: in vivo; conditions: oral F7 40 mg/kg/d for 3 days, without glycerol injection
# Experimental: We firstly examined whether the mice model of glycerol-induced AKI was successfully established, and tested the protective effect of F7 at a dose of 40 mg/kg/d for 3 days on renal function and pathological changes. […] We also evaluated the liver, kidney, spleen, heart and lung tissues of mice with oral administration of F7 at the same dose as that in F7+glycerol group for 3 days, but without glycerol injections.
# Supplementary file pone.0224158.s002.tif: S2 Fig Histological examinations of different organs from the normal mice administrated with F7. Photomicrographs (×200) illustrated H&E staining of the heart, liver, spleen, lung and kidney tissues from mice with oral administration of F7 at a dose of 40 mg/kg/d for 3 days but without glycerol injection. (TIF) Click here for additional data file.
# HK-2 cells [2] = test: Annexin V/PI flow cytometry of myoglobin-stimulated HK-2 cells; format: cell-based, Human; conditions: F7 […], 5 nM and 10 nM; Mb 200 μM, 24 hrs
# Experimental: Human renal proximal tubule cell line (HK-2) cells were purchased from Shanghai Institute of Biochemistry and Cell Biology, Shanghai, China and maintained in DMEM/F12 (Hyclone, Beijing, China) supplemented with 10% fetal bovine serum (FBS, Hyclone, Australia) and 1% penicillin and streptomycin at 37°C under humidified atmosphere of 5% carbon dioxide. Then cells were seeded on six-well plates (Shanghai Sunub Bio-Tech Development Inc., Shanghai, China) at a density of 200,000 cells per well, divided into four groups at exponential phase: the control group (cells incubated with DMEM/F12+10%FBS), the model group (cells incubated with 200 μM ferrous myoglobin (M0630, Sigma-Aldrich, St. […]
# Cell apoptosis was evaluated by flow cytometry using an Annexin V-FITC apoptosis analysis kit (AO-2001-02P-H, Tianjin Sungene Biotech Co., Ltd, Tianjin, China). After the four group of cells were cultured under the condition as described above for 24 hours, they were digested by trypsin, collected, and washed three times with PBS diluted 1×binding buffer (1ml per tube). […] After being supplemented to 500 μL using cold PBS followed by gentle vortex, samples were ready to be testes. Apoptosis signals were detected using a CytoFLEX by Beckman & Coulter.
# HK-2 cells [3] = test: Western blot of myoglobin-stimulated HK-2 cells; format: cell-based, Human
# Experimental: Kidney tissue or cultured cell samples were sufficiently lysed in the mixture of RIPA buffer (50 mM Tris (pH7.4), 150 mM NaCl, 1% TritonX-100, 1% sodium deoxycholate, 0.1% SDS) containing 4% cocktail proteinase inhibitor (Roche, Switzerland) on ice. After centrifuged at 13,000 rpm for 15 min at 4°C, supernate of the homogenate were collected for protein quantification. Protein equivalent to 50 ug were loaded into 10–12% SDS-PAGE gels for electrophoretic separation, and then transferred to polyvinylidene difluoride (PVDF) membranes (0.2 μm, Bio-Rad Laboratories, Inc.). After protein blotting, membranes were blocks using 5% non-fat dried milk for 1h at room temperature, then probed with primary antibodies at 4°C overnight, and incubated with secondary antibodies for 1h at room temperature. […] Immunoblots were visualized with the Immobilon Western Chemiluminescent HRP Substrate (Millipore Corporation, Billerica, MA, United States) and measured with Bio-Rad Chemi Doc MP. […]
smiles,measurement,setting,value
"Cc1nc(N(C)c2ccc(Oc3ccc(C(=O)NO)cn3)cc2)c2ccccc2n1 [F7, N-hydroxy-6-(4-(methyl(2-methylquinazolin-4-yl)amino)phenoxy)nicotinamide]","organ damage (histological sections of liver, kidney, spleen, heart and lung)",[1],did not exhibited organ damage
same,growth of HK-2 cells under stimulation of myoglobin,HK-2 cells [2],improved growth of HK-2 cells under stimulation of myoglobin (Mb) in a dose-dependent manner
same,HDAC6 expression in vitro,HK-2 cells [3],effectively inhibited
same,inflammation in HK-2 cells (NF-κB pathway activation),HK-2 cells [3],ameliorated
